Data reported in ChEMBL document CHEMBL3885861, “Open TG-GATES”.

Organism: Rattus norvegicus
Assay: Open TG-GATES - Regimen: Single
Assay type: toxicity, organism-based, Sprague-Dawley
Set-up: regimen Single, gender Male, age 6 weeks
Settings: in vivo, po, 30 mg/kg, route gavage, dose level Low; for APTT / Bas / Eos / Fbg / Hb / Ht / Lym / MCH / MCHC / MCV / Mono / Neu / PT / Plat / RBC / Ret / WBC: tissue Blood; for KIDNEY_L / KIDNEY_R / KIDNEY_TOTAL: tissue Kidney; for LIVER: tissue Liver; for A/G / ALP / ALT / AST / BUN / CRE / Ca / Cl / DBIL / GLC / IP / K / LDH / Na / PL / RALB / TBIL / TC / TG / TP / gamma-GTP: tissue Plasma

CCc1oc2ccccc2c1C(=O)c1cc(I)c(O)c(I)c1 [BENZIODARONE]
TERMINAL_BW (3 h): 212.2 g
APTT (3 h): 16.6 s
Bas (3 h): 0%
Eos (3 h): 1%
Fbg (3 h): 202.4 mg/dL
Hb (3 h): 14 g/dL
Ht (3 h): 41.5%
Lym (3 h): 74.4%
MCH (3 h): 21.7 pg
MCHC (3 h): 33.8%
MCV (3 h): 64.3 fL
Mono (3 h): 10%
Neu (3 h): 14.8%
PT (3 h): 12 s
Plat (3 h): 117.6 x10_4/uL
RBC (3 h): 645.8 x10_4/ul
Ret (3 h): 8.1%
WBC (3 h): 97.8 x10_2/uL
KIDNEY_L (3 h): 1 g
KIDNEY_R (3 h): 1 g
KIDNEY_TOTAL (3 h): 2 g
LIVER (3 h): 10 g
A/G (3 h): 2.1
ALP (3 h): 939.2 IU/L
ALT (3 h): 33.8 IU/L
AST (3 h): 66.6 IU/L
BUN (3 h): 11 mg/dL
CRE (3 h): 0.5 mg/dL
Ca (3 h): 10.6 mg/dL
Cl (3 h): 103.4 meq/L
DBIL (3 h): 0 mg/dL
GLC (3 h): 192.8 mg/dL
IP (3 h): 9.7 mg/dL
K (3 h): 4.4 meq/L
LDH (3 h): 109.6 IU/L
Na (3 h): 141 meq/L
PL (3 h): 131.2 mg/dL
RALB (3 h): 3.7 g/dL
TBIL (3 h): 0.4 mg/dL
TC (3 h): 73 mg/dL
TG (3 h): 56.8 mg/dL
TP (3 h): 5.4 g/dL
gamma-GTP (3 h): 2 IU/L
TERMINAL_BW (6 h): 213.4 g
APTT (6 h): 16.4 s
Bas (6 h): 0%
Eos (6 h): 1%
Fbg (6 h): 218.2 mg/dL
Hb (6 h): 13.7 g/dL
Ht (6 h): 41%
Lym (6 h): 82%
MCH (6 h): 21.9 pg
MCHC (6 h): 33.4%
MCV (6 h): 65.6 fL
Mono (6 h): 7.8%
Neu (6 h): 9.8%
PT (6 h): 12 s
Plat (6 h): 108.5 x10_4/uL
RBC (6 h): 625.4 x10_4/ul
Ret (6 h): 10.8%
WBC (6 h): 102.6 x10_2/uL
KIDNEY_L (6 h): 1 g
KIDNEY_R (6 h): 1 g
KIDNEY_TOTAL (6 h): 1.9 g
LIVER (6 h): 9.8 g
A/G (6 h): 2.2
ALP (6 h): 728.8 IU/L
ALT (6 h): 31 IU/L
AST (6 h): 65.6 IU/L
BUN (6 h): 11.8 mg/dL
CRE (6 h): 0.5 mg/dL
Ca (6 h): 10.7 mg/dL
Cl (6 h): 105 meq/L
DBIL (6 h): 0.03 mg/dL
GLC (6 h): 183.4 mg/dL
IP (6 h): 9.8 mg/dL
K (6 h): 4.6 meq/L
LDH (6 h): 105.2 IU/L
Na (6 h): 141.6 meq/L
PL (6 h): 130.6 mg/dL
RALB (6 h): 3.7 g/dL
TBIL (6 h): 0.3 mg/dL
TC (6 h): 76.6 mg/dL
TG (6 h): 55.2 mg/dL
TP (6 h): 5.4 g/dL
gamma-GTP (6 h): 1.8 IU/L
TERMINAL_BW (9 h): 210.3 g
APTT (9 h): 17.9 s
Bas (9 h): 0%
Eos (9 h): 1%
Fbg (9 h): 203.2 mg/dL
Hb (9 h): 13.5 g/dL
Ht (9 h): 40.3%
Lym (9 h): 76.8%
MCH (9 h): 21.7 pg
MCHC (9 h): 33.6%
MCV (9 h): 64.5 fL
Mono (9 h): 8%
Neu (9 h): 14.6%
PT (9 h): 12 s
Plat (9 h): 110.8 x10_4/uL
RBC (9 h): 624.8 x10_4/ul
Ret (9 h): 8.2%
WBC (9 h): 78 x10_2/uL
KIDNEY_L (9 h): 0.9 g
KIDNEY_R (9 h): 1 g
KIDNEY_TOTAL (9 h): 1.9 g
LIVER (9 h): 9 g
A/G (9 h): 2.2
ALP (9 h): 748.4 IU/L
ALT (9 h): 28.8 IU/L
AST (9 h): 58.6 IU/L
BUN (9 h): 11.4 mg/dL
CRE (9 h): 0.4 mg/dL
Ca (9 h): 10.4 mg/dL
Cl (9 h): 105.4 meq/L
DBIL (9 h): 0.086 mg/dL
GLC (9 h): 198 mg/dL
IP (9 h): 10.4 mg/dL
K (9 h): 4.5 meq/L
LDH (9 h): 88.4 IU/L
Na (9 h): 142.8 meq/L
PL (9 h): 129.2 mg/dL
RALB (9 h): 3.7 g/dL
TBIL (9 h): 0.3 mg/dL
TC (9 h): 67.6 mg/dL
TG (9 h): 48.6 mg/dL
TP (9 h): 5.5 g/dL
gamma-GTP (9 h): 0.8 IU/L
TERMINAL_BW (24 h): 226.7 g
APTT (24 h): 17.3 s
Bas (24 h): 0%
Eos (24 h): 1%
Fbg (24 h): 206.6 mg/dL
Hb (24 h): 13.4 g/dL
Ht (24 h): 39.2%
Lym (24 h): 76.4%
MCH (24 h): 22.1 pg
MCHC (24 h): 34.2%
MCV (24 h): 64.8 fL
Mono (24 h): 7.4%
Neu (24 h): 15%
PT (24 h): 11.9 s
Plat (24 h): 117.8 x10_4/uL
RBC (24 h): 605 x10_4/ul
Ret (24 h): 8.1%
WBC (24 h): 94 x10_2/uL
KIDNEY_L (24 h): 1 g
KIDNEY_R (24 h): 1 g
KIDNEY_TOTAL (24 h): 2 g
LIVER (24 h): 11.1 g
A/G (24 h): 2.1
ALP (24 h): 882.8 IU/L
ALT (24 h): 34.6 IU/L
AST (24 h): 70.8 IU/L
BUN (24 h): 17.4 mg/dL
CRE (24 h): 0.6 mg/dL
Ca (24 h): 10.6 mg/dL
Cl (24 h): 104.6 meq/L
DBIL (24 h): 0.006 mg/dL
GLC (24 h): 197.2 mg/dL
IP (24 h): 7.4 mg/dL
K (24 h): 4.7 meq/L
LDH (24 h): 95.8 IU/L
Na (24 h): 141 meq/L
PL (24 h): 138.2 mg/dL
RALB (24 h): 3.8 g/dL
TBIL (24 h): 0.3 mg/dL
TC (24 h): 73.2 mg/dL
TG (24 h): 81.6 mg/dL
TP (24 h): 5.6 g/dL
gamma-GTP (24 h): 1 IU/L
